Results reported in patent US9540338B2, “Substituted cinnamic acid amides for treating pain” (NIPPON ZOKI PHARMACEUTICAL CO., LTD., priority 2012, dated 2017).
Marks after values point to notes of the source that are not given here.

Assays:
[1] = tested on: Chung model rat; experiment: Analgesic efficacy test (2): Chung model rat, neuropathic pain model (allodynia, von Frey filament); assay type: in vivo, rats; conditions: mean ± standard error
Experimental: An analgesic efficacy test was conducted using a Chung model rat, a neuropathic pain model. Nine-week old Wistar male rats were previously bred as an experimental animal, and a model rat was then prepared in accordance with the method of Kim and Chung (Pain, 50, 355-363, 1992). Specifically, left L5 spinal nerves of rats were exposed under anesthetization with pentobarbital (40 mg/kg, intraperitoneal administration), and firmly ligated with 5-0 silk yarn at L5 dorsal root ganglion peripheral side. The animals were placed in a transparent acrylic cage of which bottom was wire netted The measurement of allodynia was carried out using von Frey filament (manufactured by North Coast Medical Inc.) and a 50% reaction threshold was calculated according to an up-down method, in accordance with a method of Chaplan et al. (J. Neurosci. Method, 53, 55-63, 1994). The 50% reaction thresholds were measured twice before injury of the spinal nerve, and those animals of which thresholds were outside the standard were removed from the operation of spinal nerve injury. On or after 14 days from the spinal nerve injury, a 50% reaction threshold was measured, and those showing thresholds of 1 g or more and less than 4 g were used as experimental animal. The group was constituted by 7 or 8 rats per group so that an average of a 50% reaction threshold for each group would be nearly even.
A solution or suspension prepared by dissolving or suspending a compound of the present invention in a 0.5% (w/v) aqueous CMC-Na solution was orally administered as a test substance in a single dose. Also, a 0.5% (w/v) aqueous CMC-Na solution was administered in the same manner to the control group for nerve injury. The measurements of allodynia were carried out with the passage of time after administration, and a 50% reaction threshold (mean±standard error) of each group at action peak was calculated. In the test for significance difference, Bartlett's test was carried out in the comparison between multiple groups of the group administered with test substance with the control group for nerve injury. In the case of homoscedasticity, Dunnett's multiple comparison test of parametrics, and in the case of heteroscedasticity, Dunnett's multiple comparison test of non-parametrics were used. In all cases, significance difference was considered to be found at P<0.05 (indicated as “*” in the tables).

[2] = oral 1 mg/kg, measurement point 60 minute (action peak)
[3] = oral 10 mg/kg, measurement point 60 minute (action peak)
[4] = oral 1 mg/kg, measurement point 90 minute (action peak)
[5] = oral 10 mg/kg, measurement point 90 minute (action peak)
[6] = oral 1 mg/kg, measurement point 30 minute (action peak)
[7] = oral 10 mg/kg, measurement point 30 minute (action peak)

Compound | melting point | 50% Reaction Threshold, Group Administered with Test Substance, After Administration [1, 2] | 50% Reaction Threshold, Group Administered with Test Substance, After Administration [1, 3] | 50% Reaction Threshold, Group Administered with Test Substance, After Administration [1, 4] | 50% Reaction Threshold, Group Administered with Test Substance, After Administration [1, 5] | 50% Reaction Threshold, Group Administered with Test Substance, After Administration [1, 6] | 50% Reaction Threshold, Group Administered with Test Substance, After Administration [1, 7]
O=C(/C=C/c1ccc(F)cc1)NCCCN1CCOCC1 [Compound 26, (E)-3-(4-Fluorophenyl)-N-(3-morpholinopropyl)-2-propenamide] | 88 to 89 °C | 10.25 ± 1.07* g | 14.33 ± 0.67* g | – | – | – | –
O=C(/C=C/c1ccccc1F)NCc1cccc(N2CC[S+]([O-])CC2)c1 [Compound 70, (E)-3-(2-Fluorophenyl)-N-{[3-(oxo-1,4-thiazinan-4-yl)phenyl]methyl}-2-propenamide] | 156 to 157 °C | 4.09 ± 0.34* g | 3.41 ± 0.31* g | – | – | – | –
Cl.O=C(/C=C/c1ccc(F)cc1)NCCCN1CCS(=O)(=O)CC1 [Compound 63, (E)-N-[3-(1,1-Dioxo-1,4-thiazinan-4-yl)propyl]-3-(4-fluorophenyl)-2-propenamide hydrochloride] | 247 to 248 °C | – | – | 3.60 ± 0.35 g | 6.74 ± 0.62* g | – | –
Cl.O=C(/C=C/c1ccccc1F)NCCCN1CCSCC1 [Compound 61, (E)-3-(2-Fluorophenyl)-N-(3-thiomorpholinopropyl)-2-propenamide hydrochloride] | 178 to 179 °C | 10.64 ± 1.38* g | 11.81 ± 1.47* g | – | – | – | –
Cl.O=C(/C=C/c1ccccc1F)NCCCN1CCS(=O)(=O)CC1 [Compound 62, (E)-N-[3-(1,1-Dioxo-1,4-thiazinan-4-yl)propyl]-3-(2-fluorophenyl)-2-propenamide hydrochloride] | 252 to 253 °C | – | – | 6.17 ± 1.33 g | 9.22 ± 1.28* g | – | –
O=C(/C=C/c1ccccc1F)NCCn1ccnn1 [Compound 40, (E)-3-(2-Fluorophenyl)-N-[2-([1,2,3]triazol-1-yl)ethyl]-2-propenamide] | 110 to 112 °C | 3.61 ± 0.41 g | 5.86 ± 1.17* g | – | – | – | –
O=C(/C=C/c1cc(F)ccc1F)NCCn1ccnc1 [Compound 24, (E)-3-(2,5-Difluorophenyl)-N-[2-(imidazol-1-yl)ethyl]-2-propenamide] | 118 to 120 °C | 4.63 ± 0.36 g | 7.85 ± 0.99* g | – | – | – | –
O=C(/C=C/c1ccc(F)cc1)NCCCN1CC[S+]([O-])CC1 [Compound 67, (E)-3-(4-Fluorophenyl)-N-[3-(1-oxo-1,4-thiazinan-4-yl)propyl]-2-propenamide] | 130 to 131 °C | 10.63 ± 1.23* g | 10.71 ± 2.13* g | – | – | – | –
O=C(/C=C/c1ccc(F)cc1F)NCCCN1CCOCC1 [Compound 28, (E)-3-(2,4-Difluorophenyl)-N-(3-morpholinopropyl)-2-propenamide] | 94 to 95 °C | 8.44 ± 1.81* g | 12.05 ± 1.44* g | – | – | – | –
Cc1nccn1CCNC(=O)/C=C/c1ccccc1F [Compound 42, (E)-3-(2-Fluorophenyl)-N-[2-(2-methylimidazol-1-yl)ethyl]-2-propenamide] | 127 to 129 °C | – | – | – | – | 2.60 ± 0.32 g | 4.24 ± 0.35* g
O=C(/C=C/c1ccccc1F)Nc1cccc(-c2ccno2)c1 [Compound 54, (E)-3-(2-Fluorophenyl)-N-[3-(isoxazol-5-yl)phenyl]-2-propenamide] | 185 to 187 °C | – | – | – | – | 5.18 ± 0.81 g | 11.20 ± 1.19* g
